# How the values were obtained:
# Format in all cases: in vivo
# Tetranychus urticae = Tetranychus urticae spray test, OP-resistant; conditions: application rate 100 g/ha; after 6 days
# Method in brief: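 Percent kill is assessed 6 days after spraying infested Phaseolus vulgaris leaf discs, with all mite stages present. Compound is applied as a solvent/emulsifier aqueous formulation at the desired concentration.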
# Musca domestica = Musca domestica test; conditions: application rate 100 ppm; adult houseflies; after 2 days
# Method in brief: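 10 adult flies per vessel; sugar-solution sponge dosed with active ingredient formulation (DMSO concentrate diluted in water to desired concentration). Read-out: % kill at 2 days.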
# Amblyomma hebraeum = Amblyomma hebraeum test (tick nymphs, immersion); conditions: application rate 100 ppm; tick nymphs immersed one minute; after 42 days
# Method: (§1) Solvent: dimethyl sulphoxide
# To produce an appropriate active ingredient formulation, 10 mg of active ingredient are mixed with 0.5 ml of dimethyl sulphoxide, and the concentrate is diluted with water to the desired concentration.
# Tick nymphs (Amblyomma hebraeum) are placed into perforated plastic cups and immersed in the desired concentration for one minute. The ticks are transferred on filter paper into a Petri dish and stored in a climate-controlled cabinet.
# After 42 days, the kill in % is determined. 100% means that all of the ticks have been killed; 0% means that none of the ticks have been killed.
# [1] = test system: Boophilus microplus Parkhurst strain, SP-resistant; test: Boophilus microplus dip test; conditions: application rate 100 ppm, assessed after 7 days
# Method: Boophilus microplus—Dip Test
# Test animals: cattle ticks (Boophilus microplus) Parkhurst strain, SP-resistant
# as §1
# 10 mg of active ingredient are dissolved in 0.5 ml of dimethyl sulphoxide. For the purpose of producing a suitable formulation, the active ingredient solution is diluted with water to the concentration desired in each case.
# This active ingredient formulation is pipetted into tubes. 8-10 adult engorged female cattle ticks (Boophilus microplus) are transferred into a further tube with holes. The tube is immersed into the active ingredient formulation, and all the ticks are completely wetted. After the liquid has run out, the ticks are transferred on filter discs into plastic dishes and stored in a climate-controlled room.
# Efficacy is assessed after 7 days by laying of fertile eggs. Eggs which are not visibly fertile are stored in a climate-controlled cabinet until the larvae hatch after about 42 days. An efficacy of 100% means that none of the ticks has laid any fertile eggs; 0% means that all the eggs are fertile.
# Myzus persicae = Myzus persicae spray test; conditions: application rate 100 g/ha; after 6 days
# Method in brief: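 Efficacy, as % of aphids killed (0-100%), was scored 6 days after spraying. Test solutions were made in solvent diluted with water containing 1000 ppm emulsifier. They were sprayed onto Brassica pekinensis leaf discs carrying mixed-stage Myzus persicae.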
# Spodoptera frugiperda = Spodoptera frugiperda spray test; conditions: application rate 100 g/ha; caterpillars; after 7 days
# Method in brief: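 Percent kill of armyworm caterpillars was scored 7 days after they were placed on dried, sprayed Zea mays leaf discs. Spray solutions were made by dissolving active ingredient in solvent and diluting with 1000 ppm emulsifier water.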
# Ctenocephalides felis [2] = test: Ctenocephalides felis in vitro contact test with adult cat fleas; conditions: application rate 5 μg/cm^2 (500 g/ha); after 48 h; fleas dead or moribund
# Method in brief: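 Adult Ctenocephalides felis (5-10 per tube) were held 48 h at room temperature in tubes whose inner walls carried dried active ingredient, e.g. 5 μg/cm^2 from a 900 ppm acetone coating. Percent efficacy reflects fleas motionless or uncoordinated after being knocked to the tube base.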
# Rhipicephalus sanguineus = Rhipicephalus sanguineus in vitro contact test with adult brown dog ticks; conditions: application rate 5 μg/cm^2 (500 g/ha); after 48 h; ticks dead or moribund
# Method in brief: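 Test tubes (25 ml) were coated by dissolving active ingredient in acetone p.a., diluting to the required concentration, and spreading 250 μl over the inner walls and base on an orbital shaker at 30 rpm for 2 h. Once dry, 5-10 adult Rhipicephalus sanguineus were added, and tubes were capped with perforated lids and kept horizontal in darkness at room temperature. At 48 h, ticks were knocked down and heated at 45-50° C. for up to 5 min. Those unable to climb away were counted dead or moribund, and efficacy ran from 0% to 100%.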
# Phaedon cochleariae = Phaedon cochleariae spray test; conditions: application rate 100 g/ha; larvae; after 7 days
# Method in brief: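 Mortality of Phaedon larvae, in %, was read 7 days after release onto sprayed, dried Brassica pekinensis leaf discs. Test dilutions were prepared in water with 1000 ppm emulsifier. A score of 0% means no larvae died and 100% means all were killed.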
# Ctenocephalides felis [3] = test: Ctenocephalides felis oral test; conditions: application rate 100 ppm in citrated cattle blood; after 2 days
# Method in brief: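 DMSO stock, diluted in citrated cattle blood; ~20 unfed adult fleas feed through parafilm; % kill read at day 2 (0% = none killed).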
# Lucilia cuprina = Lucilia cuprina test; conditions: application rate 100 ppm; L1 larvae; after 2 days
# Method in brief: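 Mortality read at 2 days as percent larvae killed (100% = all, 0% = none). Test used roughly 20 first-instar larvae on minced horsemeat dosed with water-diluted DMSO formulation of compound.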
# Boophilus microplus = Boophilus microplus injection test; conditions: application rate 20 μg/animal; injection into abdomen; assessed after 7 days
# Method in brief: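 Read-out is % efficacy from fertile egg laying at 7 days: 100% means no tick laid fertile eggs, 0% means all eggs fertile. Each of 5 engorged adult females received 1 μl of DMSO test solution injected abdominally.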
SMILES,efficacy (Tetranychus urticae) [%],efficacy (kill in %) (Musca domestica) [%],efficacy (kill in %) (Amblyomma hebraeum) [%],efficacy (laying of fertile eggs) [1] [%],efficacy (Myzus persicae) [%],efficacy (Spodoptera frugiperda) [%],efficacy (Ctenocephalides felis [2]) [%],efficacy (Rhipicephalus sanguineus) [%],efficacy (Phaedon cochleariae) [%],efficacy (kill in %) (Ctenocephalides felis [3]) [%],efficacy (kill in %) (Lucilia cuprina) [%],efficacy (laying of fertile eggs) (Boophilus microplus) [%]
Cc1cc(C(=O)Nc2cc(-c3cnn(-c4c(C(F)(F)F)c(C(F)(F)C(F)(F)F)nn4C)c3)ccc2F)ccn1 [Example 1-087],100,100,90,100,90,100,100,80,100,100,100,100
Cn1nc(C(F)(F)C(F)(F)F)c(C(F)(F)F)c1-n1cc(-c2ccc(F)c(NC(=O)c3ccncc3)c2)cn1 [Example 1-025],100,100,100,100,100,100,100,100,100,100,100,100
Cn1nc(C(F)(F)C(F)(F)F)c(C(F)(F)F)c1-n1cc(-c2ccc(Cl)c(NC(=O)c3ccncc3)c2)cn1 [Example 1-024],100,100,100,100,–,100,100,100,100,100,100,100
Cn1nc(C(F)(F)C(F)(F)F)c(C(F)(F)F)c1-n1cc(-c2ccc(F)c(NC(=O)c3ccc(C#N)cc3)c2)cn1 [Example 1-088],100,–,100,100,–,100,100,100,100,100,100,100
Cn1nc(C(F)(F)C(F)(F)F)c(C(F)(F)F)c1-n1cc(-c2ccc(Cl)c(NC(=O)c3ccc(F)cc3)c2)cn1 [Example 1-022],100,–,100,100,–,100,100,100,100,100,100,100
Cc1ccc(-c2cnn(-c3c(C(F)(F)F)c(C(F)(F)C(F)(F)F)nn3C)c2)cc1NC(=O)c1ccc(F)cc1 [Example 1-038],100,–,100,100,–,100,–,100,100,100,100,100
Cc1ccc(-c2cnn(-c3c(C(F)(F)F)c(C(F)(F)C(F)(F)F)nn3C)c2)cc1NC(=O)c1ccncc1 [Example 1-040],100,100,100,100,100,100,100,100,100,100,100,100
Cn1nc(C(F)(F)C(F)(F)F)c(C(F)(F)F)c1-n1cc(-c2ccc(F)c(NC(=O)c3ccsc3)c2)cn1 [Example 1-041],100,–,100,100,100,100,100,100,100,100,100,100
Cn1nc(C(F)(F)C(F)(F)F)c(C(F)(F)F)c1-n1cc(-c2ccc(F)c(NC(=O)c3ccc(F)cc3)c2)cn1 [Example 1-027],100,100,–,100,100,100,100,100,100,100,100,100

# Source: patent US10273226B2, “Pyrazolyl-heteroarylamides as pesticides” (Bayer Animal Health GmbH, priority 2014, dated 2019)
